Reference: article PMC12335474 (Communications Biology, 2025)

Legend:
[1] = molecular target: MLCK (myosin light chain kinase, smooth muscle) (Homo sapiens, UniProt Q15746, N1725A); assay: SPR; type: binding
[2] = molecular target: MLCK (myosin light chain kinase, smooth muscle) (Homo sapiens, UniProt Q15746); assay: SPR; type: binding
MLCK (myosin light chain kinase, smooth muscle) (Homo sapiens, UniProt Q15746), sequence (Q15746 whole entry): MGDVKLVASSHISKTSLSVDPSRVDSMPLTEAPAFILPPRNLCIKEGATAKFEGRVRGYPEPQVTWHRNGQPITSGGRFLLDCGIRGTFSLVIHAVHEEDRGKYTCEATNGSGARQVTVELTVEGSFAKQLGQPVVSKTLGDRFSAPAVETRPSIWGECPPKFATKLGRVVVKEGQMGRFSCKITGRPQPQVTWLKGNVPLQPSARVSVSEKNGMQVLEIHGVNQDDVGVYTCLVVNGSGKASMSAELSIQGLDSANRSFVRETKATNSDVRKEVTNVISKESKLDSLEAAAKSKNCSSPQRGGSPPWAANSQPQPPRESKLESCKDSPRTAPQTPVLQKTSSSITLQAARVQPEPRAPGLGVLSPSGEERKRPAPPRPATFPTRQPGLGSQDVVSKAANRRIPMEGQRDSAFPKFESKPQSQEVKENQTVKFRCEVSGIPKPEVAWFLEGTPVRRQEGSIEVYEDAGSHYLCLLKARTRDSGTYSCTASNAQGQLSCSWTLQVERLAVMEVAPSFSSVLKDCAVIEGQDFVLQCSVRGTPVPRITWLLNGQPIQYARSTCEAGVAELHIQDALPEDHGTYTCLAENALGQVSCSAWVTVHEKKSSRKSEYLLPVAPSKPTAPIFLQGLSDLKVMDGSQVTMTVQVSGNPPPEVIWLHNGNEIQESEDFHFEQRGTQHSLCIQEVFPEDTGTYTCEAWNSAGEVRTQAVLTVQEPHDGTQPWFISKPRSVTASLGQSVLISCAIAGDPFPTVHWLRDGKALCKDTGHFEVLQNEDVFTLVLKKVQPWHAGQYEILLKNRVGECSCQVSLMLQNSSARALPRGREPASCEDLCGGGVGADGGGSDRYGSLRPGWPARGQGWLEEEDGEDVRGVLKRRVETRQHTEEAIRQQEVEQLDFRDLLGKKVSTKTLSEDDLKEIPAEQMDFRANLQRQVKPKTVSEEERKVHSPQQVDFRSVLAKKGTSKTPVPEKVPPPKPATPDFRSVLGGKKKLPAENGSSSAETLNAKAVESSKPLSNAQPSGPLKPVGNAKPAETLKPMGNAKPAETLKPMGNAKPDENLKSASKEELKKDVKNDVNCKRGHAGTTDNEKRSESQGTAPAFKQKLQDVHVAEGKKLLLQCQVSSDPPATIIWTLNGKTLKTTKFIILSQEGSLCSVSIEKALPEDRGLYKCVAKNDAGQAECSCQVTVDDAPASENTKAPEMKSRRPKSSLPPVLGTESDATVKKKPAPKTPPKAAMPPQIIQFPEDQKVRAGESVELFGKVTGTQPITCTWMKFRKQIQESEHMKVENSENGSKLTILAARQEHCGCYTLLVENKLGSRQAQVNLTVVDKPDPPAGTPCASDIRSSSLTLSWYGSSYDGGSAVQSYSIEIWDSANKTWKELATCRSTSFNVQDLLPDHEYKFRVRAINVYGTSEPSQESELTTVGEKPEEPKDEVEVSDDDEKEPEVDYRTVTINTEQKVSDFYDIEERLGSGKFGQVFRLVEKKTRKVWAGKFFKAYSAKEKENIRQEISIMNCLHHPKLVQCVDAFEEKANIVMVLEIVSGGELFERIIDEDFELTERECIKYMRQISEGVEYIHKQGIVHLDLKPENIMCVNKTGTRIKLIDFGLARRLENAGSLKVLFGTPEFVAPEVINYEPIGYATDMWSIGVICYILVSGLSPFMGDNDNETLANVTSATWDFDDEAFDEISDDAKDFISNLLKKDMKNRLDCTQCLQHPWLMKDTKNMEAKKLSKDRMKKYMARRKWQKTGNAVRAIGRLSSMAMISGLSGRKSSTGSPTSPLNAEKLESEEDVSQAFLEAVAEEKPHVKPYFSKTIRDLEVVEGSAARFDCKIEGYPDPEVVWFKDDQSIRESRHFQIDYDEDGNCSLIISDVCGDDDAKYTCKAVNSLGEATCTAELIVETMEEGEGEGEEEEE

MLCK (myosin light chain kinase, smooth muscle) (Homo sapiens, UniProt Q15746, N1725A), sequence (Q15746 923-1914 N1725A): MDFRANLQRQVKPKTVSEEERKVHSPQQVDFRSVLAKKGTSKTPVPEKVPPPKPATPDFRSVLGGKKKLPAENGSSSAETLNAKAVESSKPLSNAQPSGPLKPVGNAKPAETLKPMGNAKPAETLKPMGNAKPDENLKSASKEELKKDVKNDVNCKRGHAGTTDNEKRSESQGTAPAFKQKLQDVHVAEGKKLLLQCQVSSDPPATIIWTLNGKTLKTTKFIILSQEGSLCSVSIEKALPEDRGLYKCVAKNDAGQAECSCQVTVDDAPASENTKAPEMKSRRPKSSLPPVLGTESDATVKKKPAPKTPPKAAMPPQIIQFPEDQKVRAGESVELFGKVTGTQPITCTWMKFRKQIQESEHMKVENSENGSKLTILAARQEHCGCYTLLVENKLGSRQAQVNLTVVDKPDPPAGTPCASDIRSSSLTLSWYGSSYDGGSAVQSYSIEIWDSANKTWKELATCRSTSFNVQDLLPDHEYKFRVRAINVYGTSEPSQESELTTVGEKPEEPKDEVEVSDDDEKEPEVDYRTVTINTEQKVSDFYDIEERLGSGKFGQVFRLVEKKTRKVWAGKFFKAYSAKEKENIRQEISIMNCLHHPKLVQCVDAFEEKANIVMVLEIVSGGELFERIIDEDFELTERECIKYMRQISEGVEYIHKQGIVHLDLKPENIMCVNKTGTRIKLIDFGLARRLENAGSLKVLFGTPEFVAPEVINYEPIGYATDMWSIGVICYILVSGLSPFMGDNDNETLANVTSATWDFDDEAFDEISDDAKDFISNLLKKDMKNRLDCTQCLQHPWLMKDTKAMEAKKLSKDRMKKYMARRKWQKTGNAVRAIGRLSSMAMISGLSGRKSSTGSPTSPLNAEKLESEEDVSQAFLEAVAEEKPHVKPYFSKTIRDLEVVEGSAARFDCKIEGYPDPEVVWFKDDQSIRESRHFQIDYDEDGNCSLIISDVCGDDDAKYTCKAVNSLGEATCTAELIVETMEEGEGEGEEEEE

Compound: O=c1[nH]c(=O)c2[nH]c(=O)[nH]c2[nH]1 [UA, uric acid]
- Kd [1]: 312 µM
- Kd [2]: 257 µM
